In patent US4206235A, “Novel 2,5-dihalophenyl-β-substituted sulfone fungicides” (priority 1976, dated 1980):
Values after ≈ are worked out from the molar mass of the structure shown.

Columns and labels:
Rhizoctonia solani = assay: Fungitoxicity in culture media (agar), growth inhibition; assay type: cell-based; conditions: 50% inhibition of growth, read-out: ED50 (the source's name)
Description: (§1) Acetone solutions of the compound were mixed with an aliquot of distilled water and the fine suspension obtained was mixed with cooled but melted agar medium and poured into Petri dishes.
(§2) The tested fungi were grown on the solidified media. Growth of the fungus was measured and percent inhibition was calculated by comparing with the appropriate acetone-water controls. Media were usually Martin's or potato-dextrose agar media.
(§3) ED50 = effective dose, sufficient for the 50% inhibition of growth of the fungus, expressed in p.p.m.

Rhizoctonia bataticola = assay: as above; assay type: cell-based; conditions: Macrophomina phaseolina, 50% inhibition of growth, read-out: ED50 (the source's name)
Description: as §1, §2, §3

[1] = test system: Fusarium oxysporum sp. f.lycopersici; assay: as above; assay type: cell-based; conditions: 50% inhibition of growth, read-out: ED50 (the source's name)
Description: as §1, §2, §3

Venturia inaequalis [2] = assay: Control of apple scab in greenhouse test, apple seedlings; assay type: in vivo; conditions: Barrat & Horsfall Scale, 1 = 0%, 12 = 100% leaf scabbed, 15 days after inoculation
[3] = test system: mixed spore suspension of Aspergillus flavus, Aspergillus niger, Paecilomyces varioti, Penicillium funiculosum, Trichoderma viride, Alternaria tenuis …; assay: Weight Loss Test of PVC sheeting
Aspergillus flavus = assay: Halo test on plasticized PVC sheeting; assay type: cell-based; parameters: key to growth under the test sample (GUS): +: no reduction in growth; ±: slight reduction in growth; .-+.: moderate reduction in growth; -: complete reduction in growth
Sclerotinia rolfsil = assay: Fungitoxicity in culture media (agar), growth inhibition; assay type: cell-based; conditions: 50% inhibition of growth, read-out: ED50 (the source's name)
Description: as §1, §2, §3

Pythium aphanidermatum = assay: as above; assay type: cell-based; conditions: 50% inhibition of growth, read-out: ED50 (the source's name)
Description: as §1, §2, §3

[4] = test system: Cladosporium cladosporoides; assay: Halo test on plasticized PVC sheeting; assay type: cell-based; parameters: key to growth under the test sample (GUS): +: no reduction in growth; ±: slight reduction in growth; .-+.: moderate reduction in growth; -: complete reduction in growth
Penicillium funiculosum = assay: Halo test on plasticized PVC sheeting; assay type: cell-based; parameters: key to growth under the test sample (GUS): +: no reduction in growth; ±: slight reduction in growth; .-+.: moderate reduction in growth; -: complete reduction in growth
Alternaria tenuis = assay: Halo test on plasticized PVC sheeting; assay type: cell-based; parameters: key to growth under the test sample (GUS): +: no reduction in growth; ±: slight reduction in growth; .-+.: moderate reduction in growth; -: complete reduction in growth; conditions: for Zone of growth inhibition (halo): brackets = growth partially suppressed
Paecilomyces varioti = assay: Halo test on plasticized PVC sheeting; assay type: cell-based; parameters: key to growth under the test sample (GUS): +: no reduction in growth; ±: slight reduction in growth; .-+.: moderate reduction in growth; -: complete reduction in growth
Trichoderma viride = assay: Halo test on plasticized PVC sheeting; assay type: cell-based; parameters: key to growth under the test sample (GUS): +: no reduction in growth; ±: slight reduction in growth; .-+.: moderate reduction in growth; -: complete reduction in growth
Aspergillus niger = assay: Halo test on plasticized PVC sheeting; assay type: cell-based; parameters: key to growth under the test sample (GUS): +: no reduction in growth; ±: slight reduction in growth; .-+.: moderate reduction in growth; -: complete reduction in growth
Rhizopus stolonifer = assay: Fungitoxicity in culture media (agar), growth inhibition; assay type: cell-based; conditions: 50% inhibition of growth, read-out: ED50 (the source's name)
Description: as §1, §2, §3

Venturia inaequalis [5] = assay: Comparative performance of 2 compounds and 2 commercial fungicides, spray treated plants in greenhouse; assay type: in vivo
[6] = 0.5% in PVC sheeting, brackets = growth partially suppressed
[7] = Test No.1, inoculum 2.5 ×10^5 /ml, 50 p.p.m.
[8] = Test No.1, inoculum 2.5 ×10^5 /ml, 100 p.p.m.
[9] = Test No.1, inoculum 2.5 ×10^5 /ml, 500 p.p.m.
[10] = Test No.2, inoculum 5.0 ×10^5 /ml, 50 p.p.m.
[11] = Test No.2, inoculum 5.0 ×10^5 /ml, 100 p.p.m.
[12] = Test No.2, inoculum 5.0 ×10^5 /ml, 500 p.p.m.

Q: `O=S(=O)(CC(Cl)c1ccccc1)c1cc(Cl)ccc1Cl` (stereo not drawn) [Example 5, 2,5-dichlorophenyl-β-chloro-β-phenylethyl sulfone] was tested. Which IC50 (Rhizoctonia solani) did it give?
A: 20 µg/mL (≈ 57.2 µM)

Q: What about the IC50 (Rhizoctonia bataticola) of the same molecule?
A: 50 µg/mL (≈ 143 µM)

Q: What about the IC50 [1] of the same molecule?
A: > 50 µg/mL

Q: And the Mean disease severity (Venturia inaequalis [2]; 50 p.p.m.)?
A: 6.0

Q: And the Mean disease severity (Venturia inaequalis [2]; 100 p.p.m.)?
A: 2.3

Q: What about the Mean disease severity (Venturia inaequalis [2]; 500 p.p.m.) of the same molecule?
A: 3.5

Q: With `[Cl][Hg][Cl]` [mercuric chloride, reference compound] as the molecule, how does the “changes in weight (in words)” value [3] read?
A: only negligible changes in weight

Q: For `O=S(=O)(CC(Cl)(Cl)Cl)c1cc(Cl)ccc1Cl` [Example 2, 2,5-dichlorophenyl,β,β',β"-trichloroethyl sulfone], which “Zone of growth inhibition (halo)” value (Aspergillus flavus; 0.5% in PVC sheeting) is on record?
A: 0 millimetres

Q: And the “growth under the test sample (GUS)” value (Aspergillus flavus; 0.5% in PVC sheeting)?
A: +

Q: What about the “Zone of growth inhibition (halo)” value (Aspergillus flavus; 1% in PVC sheeting) of the same molecule?
A: 0 millimetres

Q: What about the “growth under the test sample (GUS)” value (Aspergillus flavus; 1% in PVC sheeting) of the same molecule?
A: +

Q: What about the IC50 (Sclerotinia rolfsil) of the same molecule?
A: 10 µg/mL (≈ 29.2 µM)

Q: What about the IC50 (Rhizoctonia solani) of the same molecule?
A: 10 µg/mL (≈ 29.2 µM)

Q: And the IC50 (Rhizoctonia bataticola)?
A: 10 µg/mL (≈ 29.2 µM)

Q: What about the IC50 (Pythium aphanidermatum) of the same molecule?
A: 5 µg/mL (≈ 14.6 µM)

Q: What about the IC50 [1] of the same molecule?
A: 50 µg/mL (≈ 146 µM)

Q: And the “growth under the test sample (GUS)” value ([4]; 0.5% in PVC sheeting)?
A: .-+.

Q: What about the “Zone of growth inhibition (halo)” value ([4]; 1% in PVC sheeting) of the same molecule?
A: 8 millimetres

Q: And the “growth under the test sample (GUS)” value ([4]; 1% in PVC sheeting)?
A: -

Q: And the “growth under the test sample (GUS)” value (Penicillium funiculosum; 0.5% in PVC sheeting)?
A: +

Q: What about the “Zone of growth inhibition (halo)” value (Penicillium funiculosum; [6]) of the same molecule?
A: 0 millimetres

Q: And the “Zone of growth inhibition (halo)” value (Penicillium funiculosum; 1% in PVC sheeting)?
A: 0 millimetres

Q: And the “growth under the test sample (GUS)” value (Penicillium funiculosum; 1% in PVC sheeting)?
A: +

Q: And the “growth under the test sample (GUS)” value (Alternaria tenuis; 0.5% in PVC sheeting)?
A: .-+.

Q: And the “growth under the test sample (GUS)” value (Alternaria tenuis; 1% in PVC sheeting)?
A: -

Q: What about the “Zone of growth inhibition (halo)” value (Paecilomyces varioti; 0.5% in PVC sheeting) of the same molecule?
A: 0 millimetres

Q: And the “growth under the test sample (GUS)” value (Paecilomyces varioti; 0.5% in PVC sheeting)?
A: +

Q: And the “Zone of growth inhibition (halo)” value (Paecilomyces varioti; 1% in PVC sheeting)?
A: 0 millimetres

Q: And the “growth under the test sample (GUS)” value (Paecilomyces varioti; 1% in PVC sheeting)?
A: +

Q: And the “Zone of growth inhibition (halo)” value (Trichoderma viride; 0.5% in PVC sheeting)?
A: 0 millimetres

Q: And the “growth under the test sample (GUS)” value (Trichoderma viride; 0.5% in PVC sheeting)?
A: +

Q: And the “Zone of growth inhibition (halo)” value (Trichoderma viride; 1% in PVC sheeting)?
A: 0 millimetres

Q: And the “growth under the test sample (GUS)” value (Trichoderma viride; 1% in PVC sheeting)?
A: +

Q: What about the “growth under the test sample (GUS)” value (Aspergillus niger; 0.5% in PVC sheeting) of the same molecule?
A: +

Q: What about the “Zone of growth inhibition (halo)” value (Aspergillus niger; [6]) of the same molecule?
A: 0 millimetres

Q: What about the “Zone of growth inhibition (halo)” value (Aspergillus niger; 1% in PVC sheeting) of the same molecule?
A: 0 millimetres

Q: What about the “growth under the test sample (GUS)” value (Aspergillus niger; 1% in PVC sheeting) of the same molecule?
A: +

Q: What about the Mean disease severity (Venturia inaequalis [2]; 50 p.p.m.) of the same molecule?
A: 5.0

Q: What about the Mean disease severity (Venturia inaequalis [2]; 100 p.p.m.) of the same molecule?
A: 2.9

Q: What about the Mean disease severity (Venturia inaequalis [2]; 500 p.p.m.) of the same molecule?
A: 1.3

Q: What does the source list for `O=S(=O)(CC(Cl)Cl)c1cc(Cl)ccc1Cl` [Example 1, 2,5-dichlorophenyl-β,β'-dichloroethyl sulfone]?
A: Zone of growth inhibition (halo) (Aspergillus flavus; 0.5% in PVC sheeting): 0 millimetres; growth under the test sample (GUS) (Aspergillus flavus; 0.5% in PVC sheeting): .-+.; Zone of growth inhibition (halo) (Aspergillus flavus; 1% in PVC sheeting): 0 millimetres; growth under the test sample (GUS) (Aspergillus flavus; 1% in PVC sheeting): .-+.; IC50 (Rhizopus stolonifer): 50 µg/mL (≈ 162 µM); IC50 (Sclerotinia rolfsil): 10 µg/mL (≈ 32.5 µM); IC50 (Rhizoctonia solani): 5 µg/mL (≈ 16.2 µM); IC50 (Rhizoctonia bataticola): 5 µg/mL (≈ 16.2 µM); IC50 (Pythium aphanidermatum): 10 µg/mL (≈ 32.5 µM); IC50 [1]: 50 µg/mL (≈ 162 µM); growth under the test sample (GUS) ([4]; 0.5% in PVC sheeting): -; Zone of growth inhibition (halo) [4, 6]: 5 millimetres; Zone of growth inhibition (halo) ([4]; 1% in PVC sheeting): 12 millimetres; growth under the test sample (GUS) ([4]; 1% in PVC sheeting): -; growth under the test sample (GUS) (Penicillium funiculosum; 0.5% in PVC sheeting): +; Zone of growth inhibition (halo) (Penicillium funiculosum; 1% in PVC sheeting): 2.5 millimetres; growth under the test sample (GUS) (Penicillium funiculosum; 1% in PVC sheeting): .-+.; growth under the test sample (GUS) (Alternaria tenuis; 0.5% in PVC sheeting): -; Zone of growth inhibition (halo) (Alternaria tenuis; 0.5% in PVC sheeting): 11 millimetres; growth under the test sample (GUS) (Alternaria tenuis; 1% in PVC sheeting): -; Zone of growth inhibition (halo) (Alternaria tenuis; 1% in PVC sheeting): 17 millimetres; Zone of growth inhibition (halo) (Paecilomyces varioti; 0.5% in PVC sheeting): 0 millimetres; growth under the test sample (GUS) (Paecilomyces varioti; 0.5% in PVC sheeting): +; Zone of growth inhibition (halo) (Paecilomyces varioti; 1% in PVC sheeting): 15 millimetres; growth under the test sample (GUS) (Paecilomyces varioti; 1% in PVC sheeting): -; Disease control (Venturia inaequalis [5]; [7]): 63.6%; Disease control (Venturia inaequalis [5]; [8]): 97.4%; Disease control (Venturia inaequalis [5]; [9]): 100%; Disease control (Venturia inaequalis [5]; [10]): 98.2%; Disease control (Venturia inaequalis [5]; [11]): 99.5%; Disease control (Venturia inaequalis [5]; [12]): 100%; Zone of growth inhibition (halo) (Trichoderma viride; 0.5% in PVC sheeting): 0 millimetres; growth under the test sample (GUS) (Trichoderma viride; 0.5% in PVC sheeting): +; Zone of growth inhibition (halo) (Trichoderma viride; 1% in PVC sheeting): 0 millimetres; growth under the test sample (GUS) (Trichoderma viride; 1% in PVC sheeting): +; growth under the test sample (GUS) (Aspergillus niger; 0.5% in PVC sheeting): .-+.; Zone of growth inhibition (halo) (Aspergillus niger; 1% in PVC sheeting): 6 millimetres; growth under the test sample (GUS) (Aspergillus niger; 1% in PVC sheeting): -; Mean disease severity (Venturia inaequalis [2]; 50 p.p.m.): 3.5; Mean disease severity (Venturia inaequalis [2]; 100 p.p.m.): 3.0; Mean disease severity (Venturia inaequalis [2]; 500 p.p.m.): 1.0

Q: Which results are given for `O=S(=O)(CC(Cl)Br)c1cc(Cl)ccc1Cl` (stereo not drawn) [Example 6, 2,5-dichlorophenyl-β-chloro-β-bromoethyl sulfone]?
A: IC50 (Rhizoctonia solani): 10 µg/mL (≈ 28.4 µM); IC50 (Rhizoctonia bataticola): 20 µg/mL (≈ 56.7 µM); IC50 [1]: > 50 µg/mL; Mean disease severity (Venturia inaequalis [2]; 50 p.p.m.): 4.0; Mean disease severity (Venturia inaequalis [2]; 100 p.p.m.): 1.0; Mean disease severity (Venturia inaequalis [2]; 500 p.p.m.): 1.0

Q: Which IC50 (Rhizopus stolonifer) does the source give for `O=S(=O)(CC(Cl)Cl)c1cc(Br)ccc1Br` [Example 7, 2,5-dibromophenyl-β,β'-dichloroethyl sulfone] here?
A: 50 µg/mL (≈ 126 µM)

Q: What about the IC50 (Rhizoctonia solani) of the same molecule?
A: 5 µg/mL (≈ 12.6 µM)

Q: What about the IC50 (Rhizoctonia bataticola) of the same molecule?
A: 20 µg/mL (≈ 50.4 µM)

Q: And the IC50 [1]?
A: 50 µg/mL (≈ 126 µM)

Q: What about the Mean disease severity (Venturia inaequalis [2]; 50 p.p.m.) of the same molecule?
A: 5.7

Q: What about the Mean disease severity (Venturia inaequalis [2]; 100 p.p.m.) of the same molecule?
A: 5.3

Q: And the Mean disease severity (Venturia inaequalis [2]; 500 p.p.m.)?
A: 5.0

Q: How did the Disease control (Venturia inaequalis [5]; [7]) turn out when `O=S(=O)(CC(Cl)(Cl)Cl)c1cc(Br)ccc1Br` [Example 8, 2,5-dibromophenyl-β,β',β"-trichloroethyl sulfone] was run?
A: 86.4%

Q: And the Disease control (Venturia inaequalis [5]; [8])?
A: 97.4%

Q: What about the Disease control (Venturia inaequalis [5]; [9]) of the same molecule?
A: 100%

Q: What about the Disease control (Venturia inaequalis [5]; [10]) of the same molecule?
A: 99.9%

Q: What about the Disease control (Venturia inaequalis [5]; [11]) of the same molecule?
A: 100%

Q: And the Disease control (Venturia inaequalis [5]; [12])?
A: 99.9%

Q: What about the Mean disease severity (Venturia inaequalis [2]; 50 p.p.m.) of the same molecule?
A: 6.0

Q: And the Mean disease severity (Venturia inaequalis [2]; 100 p.p.m.)?
A: 2.0

Q: What about the Mean disease severity (Venturia inaequalis [2]; 500 p.p.m.) of the same molecule?
A: 1.3
